Where “and” joins values, the source holds several entries; their conditions need not be identical. Identical values can stand only once.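 Interpolation was linear, between the two tested concentrations surrounding the appropriate level; five concentrations were tested over 48 hours in 96-well plates. At the GI50, growth is halved. TGI: concentration producing complete growth inhibition.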
How the values were obtained:
Experiment in all cases: NCI anticancer screen, dose series, 48 h
[1] = system: SK-MEL-28 melanoma
[2] = system: RPMI-8226 leukemia
[3] = system: HT29 colon
[4] = system: KM12 colon
[5] = system: M14 melanoma
[6] = system: RXF 393 renal
[7] = system: SK-MEL-5 melanoma
[8] = system: IGROV1 ovarian
[9] = system: MCF7 breast
[10] = system: U251 CNS
[11] = system: HCT-116 colon
[12] = system: MALME-3M melanoma
[13] = system: COLO 205 colon

Structure (SMILES) | TGI [1] | TGI [2] [µM] | TGI [3] [µM] | TGI [4] | TGI [5] [µM] | TGI [6] | TGI [7] [µM] | TGI [8] | TGI [9] | TGI [10] | TGI [11] [µM] | TGI [12] | TGI [13] | GI50 [1] | GI50 [4] | GI50 [6] | GI50 [9] [µM] | GI50 [10] [µM] | GI50 [12] [µM] | GI50 [13]
S=C1SC(=Nc2ccccc2)C(=Nc2ccccc2)N1c1ccccc1 | > 100 µM | > 100 | > 100 | > 100 µM | > 100 | > 100 µM | > 100 | > 100 µM | > 100 µM | > 100 µM | > 100 | > 100 µM | > 100 µM |  |  |  |  |  |  | 
CC(C)=CC1C(COC(=O)c2cc3c(cc2Cl)OCO3)C1(C)C (stereo not drawn) | > 100 µM |  | > 100 | > 100 µM | > 100 | 48.9 µM | 39.6 | > 100 µM |  | 86 µM | > 100 | 41.6 µM |  |  |  |  |  |  |  | 
CC1C(=O)OC2CC[N+]3(CC(=O)c4ccc(Br)cc4)CC=C(COC(=O)C(C)(O)C1(C)O)C23 (stereo not drawn) | > 375 µM | > 375 | > 375 | > 375 µM |  | > 375 µM | > 375 | > 375 µM | > 375 µM | > 375 µM | > 375 | > 375 µM | > 375 µM |  |  |  |  |  |  | 
N#C[S-].[Nd+3].c1cnc2c(c1)ccc1cccnc12.c1cnc2c(c1)ccc1cccnc12.c1cnc2c(c1)ccc1cccnc12 | 32.1 µM | > 100 | 20.2 | 22.6 µM | 6.17 |  | 14.1 | 25.3 µM |  | 12.4 µM | 6.43 | 9.54 µM | 15.6 µM |  |  |  |  |  |  | 
CN1C(=O)c2ccccc2NC(=O)c2cnn(C)c21 | > 100 µM | > 100 | > 100 | > 100 µM |  | > 100 µM | > 100 | > 100 µM | > 100 µM | > 100 µM | > 57.4 | > 100 µM | > 100 µM |  |  |  |  |  |  | 
CC1=C(C)C(=O)O[C@@H]([C@](C)(O)[C@]2(O)CC[C@@]3(O)[C@@H]4C[C@H]5O[C@]56[C@@H](O)C=CC(=O)[C@]6(C)[C@H]4CC[C@]23C)C1 | 5.86 µM and 3.44 µM |  | 5.35 | 6.73 µM and 4.57 µM |  | 0.575 µM and 0.516 µM | 2.18 | 9.53 µM and 6.51 µM | 2.94 µM and 3.41 µM | 6.71 µM and 6.54 µM | 2.88 | 2.27 µM and 2.66 µM | 0.436 µM and 0.255 µM | 0.606 µM and 0.228 µM | 0.95 µM and 0.637 µM | 0.21 µM and 0.0646 µM | 0.164 | 2.51 | 0.411 | 0.0847 µM and 0.0461 µM
O=c1[nH]c(Nc2ccc(F)c(Cl)c2)nc2nc[nH]c12 | > 100 µM | > 100 | > 100 | > 100 µM | > 100 |  | > 100 | > 100 µM | > 100 µM | > 100 µM | > 100 | > 100 µM | > 100 µM |  |  |  |  |  |  | 
COc1cc(O)cc(/C=C/c2ccc(O)cc2)c1 | > 100 µM | 25.7 | > 100 | 93.7 µM | > 100 | > 100 µM | > 100 | > 100 µM | > 100 µM | 81.4 µM | > 100 | > 100 µM | > 100 µM |  |  |  |  |  |  | 
COCO[C@@H]1C[C@H]2C(O)Nc3ccccc3C(=O)N2C1 (stereo partly drawn) | > 100 µM | > 100 | > 100 | > 100 µM | > 100 | > 100 µM | > 100 | > 100 µM | > 100 µM | > 100 µM |  |  | > 100 µM |  |  |  |  |  |  | 
CC(C)(C)NCc1cc(Nc2ccnc3cc(Cl)ccc23)cc(-c2ccc(Cl)cc2)c1O | 3.26 µM | 4.12 | 4.42 | 10.4 µM | 4 | 4.66 µM | 3.15 | 7.18 µM | 3.13 µM | 8.65 µM | 5.79 | 3.28 µM | 3.35 µM |  |  |  |  |  |  | 
COCc1nc2c(OC)cc(-c3nc4nc(N5CCN(C)CC5)ccc4[nH]3)c(OC)c2[nH]1 | > 100 µM |  | > 100 | > 100 µM | 42.4 | > 100 µM | 38.8 | > 100 µM | > 100 µM | > 100 µM | > 100 | 44.2 µM | > 100 µM |  |  |  |  |  |  | 
Nc1ccccc1CCCC(=O)O | > 100 µM | > 100 | > 100 | > 100 µM | > 100 | > 100 µM | > 100 | > 100 µM | > 100 µM | > 100 µM | > 100 | > 100 µM | > 100 µM |  |  |  |  |  |  | 
Cc1cc(NC(=S)Nc2ccccc2)c(NC(=S)Nc2ccccc2)cc1C | > 100 µM | 40.4 | > 100 | > 100 µM |  | > 80.8 µM | > 100 | > 100 µM | 98.6 µM | > 63.4 µM | > 100 | > 100 µM | > 74.3 µM |  |  |  |  |  |  | 
O=C(O)CCCCCCC[C@@H]1S[C@H]1CCCCCCO | > 100 µM | > 100 | > 100 | > 100 µM |  | > 100 µM | > 100 | > 100 µM | > 100 µM | > 100 µM | > 100 | > 100 µM | > 100 µM |  |  |  |  |  |  | 
COc1cc2c(cc1OCCCOc1cc(-c3ccc(F)cc3)nc(C)n1)N=C[C@@H]1CCCN1C2=O | 44.1 µM | > 100 | > 100 | 36.2 µM | 29.3 | 54.3 µM | 40.9 | 44.8 µM | > 100 µM | 28.7 µM | 30.6 | 27.3 µM | > 100 µM |  |  |  |  |  |  | 
CCSc1nc(N)c2c(-c3ccc(OC)c(OC)c3)c3c(nc2n1)CCCC3 | > 100 µM | > 100 | > 100 | > 100 µM | > 100 | > 100 µM | > 100 | > 100 µM | > 100 µM | > 100 µM | > 100 | > 100 µM | > 100 µM |  |  |  |  |  |  | 
CN(C)c1ccc(/C=C2/SC(=S)NC2=O)cc1 | > 100 µM | > 100 | > 100 | > 100 µM | > 100 | > 100 µM | > 100 | > 100 µM | > 100 µM | > 100 µM | > 100 | > 100 µM | > 100 µM |  |  |  |  |  |  | 
Cn1c2ccccc2c2c(-c3ccccc3)[n+]3ccccc3nc21 | 46.7 µM | 40.8 | > 100 | 32.7 µM | 34.4 |  | 33.8 | 80.9 µM |  | 64.7 µM |  | 41.6 µM | > 100 µM |  |  |  |  |  |  | 
